SMILES strings stand for the structures.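 Five concentrations, 48 hours, 96-well plates. Abbreviation: GI50, concentration required for 50% inhibition of growth. TGI: concentration producing complete growth inhibition.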

Among the test systems are EKVX NSCLC; HCT-116 colon; OVCAR-8 ovarian; RPMI-8226 leukemia; NCI-H23 lung; OVCAR-3 ovarian; MDA-MB-231 breast; MCF7 breast; DU-145 prostate; COLO 205 colon.
Assay in all cases: NCI tumour cell line growth inhibition, 48 h

Regarding `CC1SC(c2ccc(Cl)cc2Cl)N(NC(=O)C(O)c2ccccc2)C1=O` (stereo not given), the GI50 in the assay on EKVX NSCLC is 68800 nM; in the assay with HCT-116 colon, 62000 nM; in the assay on OVCAR-8 ovarian it was 63400 nM; in the assay on RPMI-8226 leukemia it was 38900 nM; with NCI-H23 lung, 64.1 µM; in the assay with OVCAR-3 ovarian it was 28.7 µM. The GI50 with MDA-MB-231 breast was 46200 nM; in the assay on MCF7 breast it was 57000 nM; in the assay with DU-145 prostate it was over 100 µM; in the assay with COLO 205 colon, over 100000 nM. In addition, the TGI in the assay on EKVX NSCLC, with HCT-116 colon, in the assay on OVCAR-8 ovarian, with RPMI-8226 leukemia, with NCI-H23 lung and with OVCAR-3 ovarian was over 100 µM in each case. The TGI in the assay on MDA-MB-231 breast, with MCF7 breast, in the assay on DU-145 prostate and in the assay on COLO 205 colon was over 100 µM throughout.

For the molecule `COc1cc2c3c(n(CCCNCCCN)c(=O)c2cc1OC)-c1cc2c(cc1C3=O)OCO2`, the GI50 with EKVX NSCLC is 5270 nM; in the assay with HCT-116 colon it was 1340 nM; with OVCAR-8 ovarian, 1270 nM; in the assay on RPMI-8226 leukemia, 2440 nM; with NCI-H23 lung, over 100 µM; with OVCAR-3 ovarian, 3.08 µM. Moreover, the GI50 was 2930 nM in the assay with MDA-MB-231 breast, 504 nM with MCF7 breast and 3.08 µM with DU-145 prostate. The TGI is 19.4 µM in the assay with EKVX NSCLC; 5.32 µM in the assay with HCT-116 colon; 13 µM in the assay on OVCAR-8 ovarian; 11.8 µM in the assay with RPMI-8226 leukemia; over 100 µM in the assay with NCI-H23 lung; 11.7 µM with OVCAR-3 ovarian. Also, the values for the TGI in the assay on MDA-MB-231 breast, in the assay on MCF7 breast and in the assay on DU-145 prostate were 12.6 µM, 5.08 µM and 13.4 µM, respectively.

Regarding `O=C1NC(c2ccccc2)C2(C(=O)O)CN(C3CC3)c3cc(N4CCNCC4)c(F)cc3C2N1` (stereo not given), the GI50 in the assay on EKVX NSCLC was over 100000 nM; in the assay with HCT-116 colon, over 100000 nM; in the assay on OVCAR-8 ovarian, over 100000 nM; with RPMI-8226 leukemia, over 100000 nM; in the assay on NCI-H23 lung, over 100 µM; in the assay with OVCAR-3 ovarian it was over 100 µM. Besides, the GI50 is over 100000 nM in the assay on MDA-MB-231 breast, over 100000 nM with MCF7 breast, over 100 µM with DU-145 prostate and over 100000 nM in the assay with COLO 205 colon. Moreover, the TGI in the assay on EKVX NSCLC, in the assay on HCT-116 colon, in the assay on OVCAR-8 ovarian, in the assay with RPMI-8226 leukemia, in the assay on NCI-H23 lung and in the assay with OVCAR-3 ovarian was over 100 µM in each case. Further, the TGI in the assay on MDA-MB-231 breast, with MCF7 breast, in the assay with DU-145 prostate and in the assay with COLO 205 colon was over 100 µM in each case.

As to `O=C(O)c1ccc(SSc2ccc(C(=O)O)cn2)nc1`, the TGI in the assay on EKVX NSCLC, with HCT-116 colon, in the assay on OVCAR-8 ovarian, with RPMI-8226 leukemia, with NCI-H23 lung and in the assay on OVCAR-3 ovarian was over 100 µM in each case. In addition, the TGI in the assay on MDA-MB-231 breast, with MCF7 breast, with DU-145 prostate and with COLO 205 colon was over 100 µM throughout.

In the case of `CC(C)(C)OC(=O)Nc1ccc2c(c1)C(NC(=O)Nc1cccc(C#N)c1)CC(C)(C)O2` (stereo not given), the GI50 with EKVX NSCLC is 691 nM; with HCT-116 colon, 1240 nM; in the assay with OVCAR-8 ovarian, 3130 nM; with RPMI-8226 leukemia, 2630 nM; in the assay with NCI-H23 lung, 1.09 µM; with OVCAR-3 ovarian, 2.15 µM. Further, the GI50 is 4170 nM with MDA-MB-231 breast, 1920 nM in the assay with MCF7 breast, 6.5 µM in the assay with DU-145 prostate and 3460 nM with COLO 205 colon. The TGI in the assay on EKVX NSCLC is over 69.6 µM; with HCT-116 colon, over 44.6 µM; in the assay with OVCAR-8 ovarian, 55.7 µM; with RPMI-8226 leukemia it was over 81.9 µM; in the assay on NCI-H23 lung, over 81.3 µM; in the assay with OVCAR-3 ovarian it was over 100 µM. Also, the TGI with MDA-MB-231 breast is over 50.7 µM; in the assay with MCF7 breast it was 30.7 µM; in the assay with DU-145 prostate it was over 100 µM; in the assay on COLO 205 colon it was 15.3 µM.

As for `Nc1cccc2c1C(=O)c1cccc(NC(=O)c3ccccc3)c1C2=O`, the GI50 with EKVX NSCLC was 421 nM; with HCT-116 colon, 401 nM; in the assay on OVCAR-8 ovarian, 784 nM; with RPMI-8226 leukemia, 462 nM; in the assay on NCI-H23 lung, 0.903 µM; with OVCAR-3 ovarian, 0.254 µM. Also, the GI50 in the assay with MDA-MB-231 breast was 1060 nM; in the assay on MCF7 breast, 258 nM; in the assay on DU-145 prostate it was 0.561 µM; with COLO 205 colon it was 354 nM. The TGI in the assay on EKVX NSCLC was 4.52 µM; in the assay on HCT-116 colon, 5.17 µM; in the assay with OVCAR-8 ovarian it was over 38.8 µM; with RPMI-8226 leukemia it was over 100 µM; in the assay on NCI-H23 lung, over 100 µM; in the assay on OVCAR-3 ovarian it was 1.47 µM. Besides, the TGI in the assay with MDA-MB-231 breast was over 100 µM; in the assay with MCF7 breast it was 21.3 µM; in the assay on DU-145 prostate it was over 22.6 µM; in the assay on COLO 205 colon it was 6.74 µM.

`COc1c(N2CCN(CN3C(=O)C(=Nc4ccc(S(=O)(=O)Nc5ncccn5)cc4)c4cc(Cl)ccc43)C(C)C2)c(F)cc2c(=O)c(C(=O)O)cn(C3CC3)c12` (stereo not given): the GI50 was 18900 nM in the assay with EKVX NSCLC; 9190 nM in the assay with HCT-116 colon; 13900 nM in the assay with OVCAR-8 ovarian; 16800 nM in the assay with RPMI-8226 leukemia; 8.22 µM in the assay with NCI-H23 lung; 14.3 µM in the assay with OVCAR-3 ovarian. The GI50 with MDA-MB-231 breast was 8280 nM; in the assay on MCF7 breast it was 11900 nM; in the assay with DU-145 prostate, 16.3 µM; with COLO 205 colon, 18400 nM. The TGI is over 50 µM with EKVX NSCLC; 21.7 µM in the assay with HCT-116 colon; over 50 µM in the assay with OVCAR-8 ovarian; over 50 µM with RPMI-8226 leukemia; 18.4 µM in the assay with NCI-H23 lung; over 50 µM with OVCAR-3 ovarian. The TGI with MDA-MB-231 breast is 31 µM; in the assay with MCF7 breast, 44.4 µM; with DU-145 prostate, over 50 µM; with COLO 205 colon, over 50 µM.

For the molecule `CC1=NOC(=O)/C1=C/c1ccc2c(c1)OCO2`, the TGI was over 100 µM in the assay on EKVX NSCLC; over 100 µM in the assay with HCT-116 colon; 86.3 µM in the assay on OVCAR-8 ovarian; 55.2 µM in the assay with RPMI-8226 leukemia; over 100 µM with NCI-H23 lung; 98.9 µM in the assay on OVCAR-3 ovarian. The TGI with MDA-MB-231 breast is 53.9 µM; with MCF7 breast, over 100 µM; with DU-145 prostate, 68.6 µM; in the assay on COLO 205 colon, 32.4 µM.

For the molecule `COc1ccc2nc3cc(Cl)ccc3c(Nc3cc(CN4CCCC4)c(O)c(CN4CCCC4)c3)c2n1`, the GI50 in the assay on EKVX NSCLC is 2340 nM; with HCT-116 colon, 1040 nM; in the assay with OVCAR-8 ovarian, 748 nM; with RPMI-8226 leukemia, 2100 nM; with NCI-H23 lung, 1.72 µM; in the assay with OVCAR-3 ovarian, 3.07 µM. Besides, the GI50 in the assay on MDA-MB-231 breast is 1860 nM; in the assay with MCF7 breast, 1000 nM; with DU-145 prostate, 2.43 µM; in the assay with COLO 205 colon, 1180 nM. The TGI with EKVX NSCLC was found to be 9.68 µM; in the assay on HCT-116 colon it was 5.83 µM; in the assay with OVCAR-8 ovarian, 13.3 µM; in the assay on RPMI-8226 leukemia, 5.7 µM; in the assay on NCI-H23 lung, 3.88 µM; in the assay on OVCAR-3 ovarian it was 14.7 µM. The TGI with MDA-MB-231 breast came out at 8.17 µM; in the assay on MCF7 breast, 8.34 µM; in the assay with DU-145 prostate, 13.6 µM; in the assay on COLO 205 colon it was 2.48 µM.

Regarding `CCCCn1c(=O)c(/C=C/C(=O)/C=C/c2cc3ccccc3n(CCCC)c2=O)cc2ccccc21`, the GI50 in the assay with EKVX NSCLC is 1880 nM; in the assay with OVCAR-8 ovarian, 1500 nM; in the assay with RPMI-8226 leukemia it was 317 nM; in the assay on OVCAR-3 ovarian it was 1.21 µM; in the assay with MDA-MB-231 breast it was 1840 nM; in the assay with MCF7 breast, 306 nM. The values for the GI50 with DU-145 prostate and with COLO 205 colon were 1.47 µM and 1410 nM, respectively. The TGI with EKVX NSCLC is 4.42 µM; with OVCAR-8 ovarian it was 4.12 µM; with RPMI-8226 leukemia, 0.931 µM; in the assay with OVCAR-3 ovarian it was 2.47 µM; with MDA-MB-231 breast, 3.37 µM; in the assay on MCF7 breast, 1.84 µM. For the same molecule, the TGI came out at 2.78 µM in the assay on DU-145 prostate and 3.16 µM with COLO 205 colon.

In the case of `CN1CCN(CCCOc2cc(O)c3c(=O)cc(-c4ccccc4)oc3c2)CC1`, the GI50 was 37600 nM with EKVX NSCLC; 37100 nM in the assay on OVCAR-8 ovarian; 21300 nM in the assay with RPMI-8226 leukemia; 19.9 µM in the assay on NCI-H23 lung; 20.8 µM in the assay with OVCAR-3 ovarian; 16300 nM in the assay on MDA-MB-231 breast. The results for the GI50 in the assay on MCF7 breast, with DU-145 prostate and in the assay on COLO 205 colon were 15300 nM, 25.3 µM and 15500 nM, respectively. The TGI in the assay on EKVX NSCLC was over 100 µM; with OVCAR-8 ovarian, over 100 µM; with RPMI-8226 leukemia, 55.2 µM; in the assay on NCI-H23 lung, 43.3 µM; with OVCAR-3 ovarian, 54.9 µM; with MDA-MB-231 breast it was 31.7 µM. The TGI in the assay on MCF7 breast was 30 µM; in the assay with DU-145 prostate it was 73.7 µM; in the assay on COLO 205 colon, 31.6 µM.

As for `CCn1c2ccccc2c2cc(C(=O)c3ccc(C)c4ccccc34)ccc21`, the GI50 in the assay on EKVX NSCLC was 528 nM; in the assay with HCT-116 colon, 344 nM; with OVCAR-8 ovarian, 493 nM; in the assay on RPMI-8226 leukemia, 389 nM; in the assay on OVCAR-3 ovarian, 0.308 µM; in the assay on MDA-MB-231 breast it was 824 nM. Also, the GI50 was 311 nM with MCF7 breast, 0.435 µM with DU-145 prostate and 249 nM in the assay with COLO 205 colon. Further, the TGI in the assay with EKVX NSCLC is over 100 µM; in the assay on HCT-116 colon it was 14.5 µM; in the assay with OVCAR-8 ovarian, over 100 µM; with RPMI-8226 leukemia, over 100 µM; in the assay on OVCAR-3 ovarian, 0.938 µM; with MDA-MB-231 breast it was over 100 µM. Moreover, the values for the TGI in the assay on MCF7 breast, in the assay on DU-145 prostate and in the assay on COLO 205 colon were over 100 µM, over 100 µM and 0.728 µM, respectively.
